According to paper PMC11062894, “Protein-based bandpass filters for controlling cellular signaling with chemical inputs” (Nature Chemical Biology, 2023):
Values joined by “and” are separate entries in the source; they are usually repeats but may differ in a detail not shown here. Identical values can stand only once.

System: GEMS receptors with CBPA11 (BclXL–LD3 and BclXLhigh variants), STAT3-driven SEAP in HEK293T cells
Assay: GEMS SEAP reporter assay, CBPA11 (BclXLhigh, LD3-v and BclXL-v variants) with A-1155463
Type: cell-based
Parameters: key to Raw data (SEAP) / SEAP, replicate values / Raw data of Figure 5b / Raw data Figure 5e / Raw data of Independent repeat of CBPA11-v1 vs CBPA11-v1-LD3v3 / Raw data of Independent repeat of CBPA11-v3 vs CBPA11-v3-LD3v3 / Raw data of Figure 5b, CBPA11-v1-LD3v3 (SEAP reporter raw value, single replicate) / Raw data of Figure 5b, CBPA11-v1 (SEAP reporter raw value, single replicate): SEAP activity in U/L in culture supernatant
Description: To rationally design a CBP responding to a chemical input, we used BclXL as the druglow receptor, LD3 as the designed binder and a designed BclXL variant as the drughigh receptor (referred to as BclXLhigh) to construct a CBP responsive to BclXL inhibitors (Fig. 4a). To design BclXLhigh, we used a multistate design computational protocol described elsewhere[26] […] Thus, BclXLhigh-v(1–3) were chosen as the functional drughigh receptors, resulting in three A-1155463-controlled CBPs (referred to as CBPA11-v(1–3)) (Fig. 4c–e).
HEK293T cells were seeded in a 96-well plate 24 h before transfection. The transfection mix in each well consisted of 3 ng of constitutive human CMV promoter driven mammalian STAT3 expression vector (PhCMV-STAT3-pA), 30 ng of STAT3-induced reporter expression (OStat3-PhCMVmin-SEAP-pA) and 50 ng of expression vectors for each GEMS receptor chain (PSV40-IgK-(drughigh receptor)-EpoRm-IL-6RBm-pA and PSV40-IgK-(druglow receptor-GGGGSX3-LD3)-EpoRm-IL-6RBm-pA). For the specific drughigh receptor and druglow receptor used in the different cellular assays, they are indicated as wild type or with mutations. Then, plasmid DNA was mixed with 50 μl opti-MEM (Thermo Fisher) and 600 ng of polyethyleneimine (Polysciences, catalog no. 24765-1). For drug treatment experiments, drugs were added 12 h post-transfection and incubated with cells for 24 h before the SEAP reporter detection assay.
SEAP activity (U l^−1) in cell culture supernatants was quantified by kinetic measurements at 405 nm (1 minute per measurement for 30 cycles) of absorbance increase due to phosphatase-mediated hydrolysis of para-nitrophenyl phosphate (pNPP).
Binding affinities of SPR drug competition assays were calculated using three-parameter nonlinear regression in GraphPad Prism (v.8.3.0). Representative data of cell assays are presented as individual values and mean values (bars). n = 3 refers to biological replicates. All IC50 or EC50 values of cell assays reported were calculated using four-parameter nonlinear regression ± s.d. Bandpass features of cutoff concentrations and Bandwidth90% were estimated based on the curve fitted using bell-shaped curve nonlinear regression in GraphPad Prism (v.8.3.0). […]
Supplementary Figure 4: Design, screening and validation of BclXLhigh variants. a) Screening of BclXLhigh variants in the GEMS platform. […]
Dissociation constant measurement of BclXLhigh-v(1-3) and LD3. Equilibrium curves are fitted using […]
BclXLhigh-v1 (purple), BclXLhigh-v2 (blue), […]
a) Bcl2high-based bandpass filter designs were developed and to respond to different concentrations of […]
corresponding inhibitor. c) Screening of Bcl2high-based bandpass filter variants in the GEMS platform.
The designed binder LD3 was fused to the druglow-receptor (PSV40-IgK-Bcl2-LD3-EpoRm-IL-6RBm-pA) in one EpoR chain and Bcl2high variants with the insensitive Bcl2 (iBcl2) as control in the other EpoR chain (PSV40-IgK-Bcl2high-EpoRm-IL-6RBm-pA). HEK293T cells were transfected with indicated […]
the mean of six biological replicates ± s.d., overlaid with a scatter dot plot of the original data points.
(1 picture or pasted object on this page, not shown here)
Supplementary Figure 6: Binding affinities and drug resistances of Bcl2high-v(2,4,5) assessed by […]
a) Measurement of dissociation constants for Bcl2high-v(2,4,5) and LD3 interactions. Equilibrium curves […]
Bcl2high-v(2,4,5) measured by SPR. 5 μM of Bcl2 or indicated variants were mixed with 10 μM of […]
Bcl2high-v2 (red), Bcl2high-v4
Supplementary Figure 7: Screening of LD3 variants in CBPA11-v(1-3) and raw data of CBPA11-v(1,3) with LD3-v3 variant. a-c) Screening of LD3 and LD3-v(1-3) variants in complex with BclXL for more sensitive CBPA11-v1 (a), CBPA11-v2 (b), CBPA11-v3 (c) in the GEMS platform. The LD3 variants replaced the role of LD3 (PSV40-IgK-BclXL-LD3-v(1-3)-EpoRm-IL-6RBm-pA) in one EpoR chain and BclXLhigh-v(1-3) in the other EpoR chain (PSV40-IgK-BclXLhigh-V(1-3)-EpoRm-IL-6RBm-pA). HEK293T cells were transfected with […]

[1] = CBPA11-v1-LD3v3, A-1155463 1 nM
[2] = CBPA11-v1-LD3v3, A-1155463 3.18 nM
[3] = CBPA11-v1-LD3v3, A-1155463 10 nM
[4] = CBPA11-v1-LD3v3, A-1155463 31.8 nM
[5] = CBPA11-v1-LD3v3, A-1155463 100 nM
[6] = CBPA11-v1-LD3v3, A-1155463 318 nM
[7] = CBPA11-v1-LD3v3, A-1155463 1000 nM
[8] = CBPA11-v1-LD3v3, A-1155463 3180 nM
[9] = CBPA11-v1-LD3v3, A-1155463 10000 nM

## CN(C)CC#Cc1ccc(OCCCc2sc(N3CCc4cccc(C(=O)Nc5nc6ccccc6s5)c4C3)nc2C(=O)O)c(F)c1 [A-1155463]
[1]
  Normalized data of Figure 5b: 12.3584 and 11.9384 and 10.5903
  Raw data of Figure 5b: 17.44 and 15.4815 and 15.2319
  Raw data of Independent repeat of CBPA11-v1 vs CBPA11-v1-LD3v3: 31.801 and 28.5095 and 29.309
CBPA11-v1-LD3v3, A-1155463 3.16 nM
  Raw data of Independent repeat of CBPA11-v1 vs CBPA11-v1-LD3v3: 34.9091 and 28.121 and 21.957
[2]
  Normalized data of Figure 5b: 13.5394 and 12.5226 and 10.9319
  Raw data of Figure 5b: 19.1065 and 16.239 and 15.7232
[3]
  Normalized data of Figure 5b: 25.1514 and 28.7722 and 29.2973
  Raw data of Figure 5b: 35.4931 and 37.3111 and 42.1378
  Raw data of Independent repeat of CBPA11-v1 vs CBPA11-v1-LD3v3: 179.972 and 131.844 and 140.391
CBPA11-v1-LD3v3, A-1155463 31.6 nM
  Raw data of Independent repeat of CBPA11-v1 vs CBPA11-v1-LD3v3: 226.429 and 187.26 and 191.409
[4]
  Normalized data of Figure 5b: 78.9386 and 88.4215 and 71.2191
  Raw data of Figure 5b: 111.396 and 114.663 and 102.433
[5]
  Normalized data of Figure 5b: 100
  Raw data of Figure 5b: 141.118 and 129.678 and 143.828
  Raw data of Independent repeat of CBPA11-v1 vs CBPA11-v1-LD3v3: 335.207 and 287.921 and 227.786
CBPA11-v1-LD3v3, A-1155463 316 nM
  Raw data of Independent repeat of CBPA11-v1 vs CBPA11-v1-LD3v3: 270.923 and 196.943 and 173.263
[6]
  Normalized data of Figure 5b: 62.5942 and 62.3431 and 56.6992
  Raw data of Figure 5b: 88.3315 and 80.8452 and 81.5497
[7]
  Normalized data of Figure 5b: 29.9151 and 30.048 and 29.0586
  Raw data of Figure 5b: 42.2154 and 38.9656 and 41.7945
  Raw data of Independent repeat of CBPA11-v1 vs CBPA11-v1-LD3v3: 123.233 and 79.9582 and 97.1187
CBPA11-v1-LD3v3, A-1155463 3160 nM
  Raw data of Independent repeat of CBPA11-v1 vs CBPA11-v1-LD3v3: 45.1078 and 32.2032 and 26.5323
[8]
  Normalized data of Figure 5b: 11.3098 and 14.9107 and 12.4987
  Raw data of Figure 5b: 15.9601 and 19.3359 and 17.9766
[9]
  Normalized data of Figure 5b: 8.9981 and 9.291 and 5.288
  Raw data of Figure 5b: 12.6979 and 12.0483 and 7.606
  Raw data of Independent repeat of CBPA11-v1 vs CBPA11-v1-LD3v3: 23.0011 and 17.3094 and 15.2043
CBPA11-v3, A-1155463 0.01 nM
  Raw data of Independent repeat of CBPA11-v3 vs CBPA11-v3-LD3v3: 26.5862 and 23.5891 and 24.9373
CBPA11-v3, A-1155463 1 nM
  Normalized data Figure 5e: 14.7288 and 13.7384 and 12.9495
  Normalized data of Figure 5b: 2.438 and 2.3416 and 2.8403
  Raw data of Figure 5b: 13.0926 and 12.3286 and 14.9355
  Raw data of Independent repeat of CBPA11-v3 vs CBPA11-v3-LD3v3: 77.8998 and 72.2772 and 68.2722
CBPA11-v3, A-1155463 3.16 nM
  Raw data of Independent repeat of CBPA11-v3 vs CBPA11-v3-LD3v3: 101.26 and 74.5174 and 69.017
CBPA11-v3, A-1155463 3.18 nM
  Normalized data Figure 5e: 19.1455 and 14.1642 and 13.0908
CBPA11-v3, A-1155463 10 nM
  Normalized data Figure 5e: 52.8574 and 45.1451 and 43.5321
  Normalized data of Figure 5b: 22.9212 and 24.7467 and 27.0042
  Raw data of Figure 5b: 123.11 and 130.292 and 142
  Raw data of Independent repeat of CBPA11-v3 vs CBPA11-v3-LD3v3: 279.56 and 237.506 and 229.509
CBPA11-v3, A-1155463 31.6 nM
  Raw data of Independent repeat of CBPA11-v3 vs CBPA11-v3-LD3v3: 420.603 and 418.534 and 369.593
CBPA11-v3, A-1155463 31.8 nM
  Normalized data Figure 5e: 79.525 and 79.5547 and 70.1024
  Normalized data of Figure 5b: 52.5804 and 56.6221 and 62.0483
  Raw data of Figure 5b: 282.41 and 298.117 and 326.277
CBPA11-v3, A-1155463 100 nM
  Normalized data Figure 5e: 93.7695 and 93.9386 and 100
  Normalized data of Figure 5b: 84.9271 and 84.8554 and 85.7543
  Raw data of Figure 5b: 456.144 and 446.765 and 450.933
CBPA11-v3, A-1155463 318 nM
  Normalized data Figure 5e: 100 and 99.7629
  Normalized data of Figure 5b: 100
  Raw data of Figure 5b: 537.1 and 526.502 and 525.843
